Experimental data reported in ChEMBL document CHEMBL2396562, “Synthesis and SAR of potent and selective tetrahydropyrazinoisoquinolinone 5-HT(2C) receptor agonists” (Bioorg Med Chem Lett, 2013).

Legend:
[1] = in vivo; conditions: Sprague-Dawley, rat, brain/plasma, po, 10 mg/kg
[2] = in vivo; conditions: Sprague-Dawley, rat, po, 10 mg/kg
[3] = in vivo; conditions: Sprague-Dawley, rat, po, 10 mg/kg; remark: listed apart in the source

Structure (SMILES): CCc1cccc2c1C[C@@H]1CNCCN1C2=O
- Kp [1]: 3.9
- Cmax [2]: 3.62 µM
- AUC(0-t) at 4 h [3]: 9.64 µM·h
